Measured values taken from PubChem BioAssay (NCI).
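Dose response: 5 concentrations. Exposure: 48 h. Format: 96-well plates. Endpoint: linear interpolation; highest concentration if not reached. GI50 marks 50% less growth. At the TGI there is no net growth.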

Assays:
Experiment in all cases: NCI anticancer screen, dose series, 48 h
[1] = system: 786-0 renal
[2] = system: A498 renal
[3] = system: A549 NSCLC
[4] = system: ACHN renal
[5] = system: BT-549 breast
[6] = system: CAKI-1 renal
[7] = system: CCRF-CEM leukemia
[8] = system: COLO 205 colon
[9] = system: DU-145 prostate
[10] = system: EKVX NSCLC
[11] = system: HCC-2998 colon
[12] = system: HCT-15 colon
[13] = system: HL-60(TB) leukemia
[14] = system: HOP-62 NSCLC
[15] = system: HOP-92 NSCLC
[16] = system: HT29 colon
[17] = system: IGROV1 ovarian
[18] = system: K-562 leukemia
[19] = system: KM12 colon
[20] = system: LOX IMVI melanoma
[21] = system: M14 melanoma
[22] = system: MALME-3M melanoma
[23] = system: MCF7 breast
[24] = system: MDA-MB-231 breast
[25] = system: MDA-MB-435
[26] = system: MOLT-4 leukemia
[27] = system: NCI-H226 lung
[28] = system: NCI-H23 lung
[29] = system: NCI-H460 lung
[30] = system: NCI-H522 lung
[31] = system: NCI/ADR-RES ovarian
[32] = system: OVCAR-3 ovarian
[33] = system: OVCAR-4 ovarian
[34] = system: OVCAR-5 ovarian
[35] = system: OVCAR-8 ovarian
[36] = system: PC-3 prostate
[37] = system: SF-268 CNS
[38] = system: SF-295 CNS
[39] = system: SF-539 CNS
[40] = system: SK-MEL-2 melanoma
[41] = system: SK-MEL-28 melanoma
[42] = system: SK-MEL-5 melanoma
[43] = system: SK-OV-3 ovarian
[44] = system: SN12C renal
[45] = system: SNB-19 CNS
[46] = system: SNB-75 CNS
[47] = system: SR leukemia
[48] = system: SW-620 colon
[49] = system: T-47D breast
[50] = system: TK-10 renal
[51] = system: U251 CNS
[52] = system: UACC-257 melanoma
[53] = system: UACC-62 melanoma
[54] = system: UO-31 renal

## CN1CCN(c2ccc(Nc3nc(NCCCNS(=O)(=O)c4ccc(C(F)(F)F)cc4)c4sccc4n3)cc2)CC1
[1]
  GI50: 1.93 µM
  TGI: 3.79 µM
[2]
  GI50: 2.16 µM
  TGI: 3.99 µM
[3]
  GI50: 3.71 µM
  TGI: 21.5 µM
[4]
  GI50: 2.69 µM
  TGI: 7.44 µM
[5]
  GI50: 1.86 µM
  TGI: 3.68 µM
[6]
  GI50: 3.05 µM
  TGI: 11.3 µM
[7]
  GI50: 3.42 µM
  TGI: 17 µM
[8]
  GI50: 2.09 µM
  TGI: 4.12 µM
[9]
  GI50: 5.11 µM
  TGI: 16.8 µM
[10]
  GI50: 3.73 µM
  TGI: 14.6 µM
[11]
  GI50: 1.98 µM
  TGI: 3.98 µM
[12]
  GI50: 1.58 µM
  TGI: 3.08 µM
[13]
  GI50: 1.78 µM
  TGI: 3.87 µM
[14]
  GI50: 2.6 µM
  TGI: 7.74 µM
[15]
  GI50: 1.91 µM
  TGI: 6.29 µM
[16]
  GI50: 2.11 µM
  TGI: 4.89 µM
[17]
  GI50: 2.38 µM
  TGI: 6.9 µM
[18]
  GI50: 1.84 µM
  TGI: 5.52 µM
[19]
  GI50: 4.3 µM
  TGI: 20.9 µM
[20]
  GI50: 1.64 µM
  TGI: 3.02 µM
[21]
  GI50: 1.89 µM
  TGI: 3.59 µM
[22]
  GI50: 1.72 µM
  TGI: 3.13 µM
[23]
  GI50: 1.74 µM
  TGI: 3.32 µM
[24]
  GI50: 1.88 µM
  TGI: 3.51 µM
[25]
  GI50: 1.79 µM
  TGI: 3.24 µM
[26]
  GI50: 2.13 µM
  TGI: 7.32 µM
[27]
  GI50: 9.09 µM
  TGI: 35 µM
[28]
  GI50: 3.41 µM
  TGI: 11.5 µM
[29]
  GI50: 2.28 µM
  TGI: 4.75 µM
[30]
  GI50: 1.77 µM
  TGI: 3.7 µM
[31]
  GI50: 3.17 µM
  TGI: 11.2 µM
[32]
  GI50: 2.74 µM
  TGI: 6.89 µM
[33]
  GI50: 2.62 µM
  TGI: 8.12 µM
[34]
  GI50: 3.26 µM
  TGI: 13.4 µM
[35]
  GI50: 3.58 µM
  TGI: 21.8 µM
[36]
  GI50: 4.27 µM
  TGI: 20.2 µM
[37]
  GI50: 2.39 µM
  TGI: 9.5 µM
[38]
  GI50: 1.81 µM
  TGI: 3.51 µM
[39]
  GI50: 1.68 µM
  TGI: 3.05 µM
[40]
  GI50: 1.78 µM
  TGI: 3.46 µM
[41]
  GI50: 1.63 µM
  TGI: 3.02 µM
[42]
  GI50: 1.78 µM
  TGI: 3.2 µM
[43]
  GI50: 12.7 µM
  TGI: 27.4 µM
[44]
  GI50: 2.22 µM
  TGI: 6.02 µM
[45]
  GI50: 3.6 µM
  TGI: 12.9 µM
[46]
  GI50: 14.5 µM
  TGI: 28 µM
[47]
  GI50: 2.06 µM
  TGI: 6.39 µM
[48]
  GI50: 1.89 µM
  TGI: 3.58 µM
[49]
  GI50: 1.89 µM
  TGI: 4.09 µM
[50]
  GI50: 2.78 µM
  TGI: 8.39 µM
[51]
  GI50: 2.62 µM
  TGI: 7.06 µM
[52]
  GI50: 1.92 µM
  TGI: 3.77 µM
[53]
  GI50: 1.68 µM
  TGI: 3.11 µM
[54]
  GI50: 1.69 µM
  TGI: 3.68 µM
